According to patent US20240116877A1, “KIT KINASE INHIBITORS AND METHODS OF USE THEREOF” (Deciphera Pharmaceuticals, LLC, priority 2021, published 2024):
Where two headings read alike, the source gives them in different places.

How the values were obtained:
GIST 430 cells = assay: GIST 430 Cell Proliferation Assay (resazurin); type: cell-based; conditions: Homo sapiens; GIST430 cell proliferation
Protocol: GIST 430 Cell Proliferation Assay
(§1) A serial dilution of test compound was dispensed into a 96-well black clear bottom plate (Corning, Corning, NY). Five thousand cells were added per well in 200 μL complete growth medium. Plates were incubated for 115 h at 37 degrees Celsius, 5% CO2, 95% humidity. At the end of the incubation period 40 μL of a 440 μM solution of resazurin (Sigma, St. Louis, MO) in PBS was added to each well and incubated for an additional 5 h at 37 degrees Celsius, 5% CO2, 95% humidity. Plates were read on a Synergy2 reader (Biotek, Winooski, VT) using an excitation of 540 nm and an emission of 600 nm. Data was analyzed using Prism software (Graphpad, San Diego, CA) to calculate IC50 values.

c-KIT kinase (uKIT) = c-KIT kinase (uKIT) (Homo sapiens (Human), UniProt P10721); assay: Biochemical Assay for uKIT (coupled pyruvate kinase/lactate dehydrogenase assay); conditions: Inhibition of biochemical activity of uKIT kinase; 1 mM ATP
Protocol: Biochemical Assay for uKIT
Activity of c-KIT kinase (SEQ. ID NO. 1 or SEQ. ID NO. 2) was determined spectroscopically using a coupled pyruvate kinase/lactate dehydrogenase assay that continuously monitors the ATP hydrolysis-dependent oxidation of NADH (e.g., Schindler et al. Science (2000) 289: 1938-1942). Assays were conducted in 384-well plates (100 μL final volume) using 16 nM (Decode, SEQ ID No. 1) or 4.36 nM (Signal Chem, SEQ. ID No. 2), 0.7 mg/mL PE4Y substrate, 1.5 units pyruvate kinase, 2.1 units lactate dehydrogenase, 1 mM phosphoenol pyruvate, 0.28 mM NADH and 1 mM ATP in assay buffer (100 mM Tris, pH 7.5, 15 mM MgCl2, 0.5 mM DTT, 0.1% octyl-glucoside, 0.002% (w/v) BSA, and 0.002% Triton X-100). Inhibition of KIT was measured by adding serial diluted test compound (final assay concentration of 1% DMSO). A decrease in absorption at 340 nm was monitored continuously for 6 h at 30° C. on a multi-mode microplate reader (BioTek). The reaction rate was calculated using the 2-3 h time frame. The reaction rate at each concentration of compound was converted to percent inhibition using controls (i.e., reaction with no test compound and reaction with a known inhibitor) and IC50 values were calculated using software routines in Prism (GraphPad software).

Ba/F3 KIT mutant cells = assay: Ba/F3 mutant KIT Cell Proliferation Assays (resazurin); type: cell-based; conditions: Mus musculus, BaF3
Protocol: Ba/F3 KIT Mutant Cell Line Transduction and Expansion
Several different KIT cDNA encoding various primary and secondary mutations were cloned into a pLV(Exp]-CMV>(cDNA):IRES:puro vector. These vectors were constructed and packaged by VectorBuilder.
Exponentially grown Ba/F3 cells (1×10^6 cells in 1 ml medium) were infected with 60 μl of viral suspension in a 6-well plate in the presence of mIL-3 (10 ng/ml) and polybrene (7.5 μg/ml) (Vector Builder) and incubated for 16 h. After 16 h, the cells were centrifuged, and viral supernatant was discarded. The cells were then re-suspended in fresh medium and allowed to recover for another day. After 72 h post infection, the cells were seeded with complete medium with mIL-3 and with 1 μg/ml puromycin added to medium for selection. After 48 h, cells without viral infection die, whereas successfully transduced cells were collected and changed to fresh medium with 5 ng/ml of IL-3. After a week or two with gradual withdrawal of mIL3 the cells that can continue to proliferate in the absence of mIL3 were exponentially expanded and were frozen down for banking.
Ba/F3 mutant KIT Cell Proliferation Assays
as §1, with “a 384-well” for “a 96-well”, “NY). Six hundred and twenty-five” for “NY). Five thousand”, “in 50” for “in 200”, “for 68” for “for 115”, “at 37° C.,” for “at 37 degrees Celsius,”, “period 10” for “period 40”

[1] = Ba/F3 KIT AYdup mutant cell proliferation, read-out: AYdup IC50
[2] = Ba/F3 KIT AYdup-D816G mutant cell proliferation, read-out: AYdup-D816G IC50
[3] = Ba/F3 KIT AYdup-V654A mutant cell proliferation, read-out: AYdup-V654A IC50
[4] = Ba/F3 KIT exon11del-V654A mutant cell proliferation, read-out: exon11del-V654A IC50
[5] = Ba/F3 KIT exon11del-Y823D mutant cell proliferation, read-out: exon11del-Y823D IC50

Chain of c-KIT kinase (uKIT) (P10721 other isoform, or with tags, fused parts or gaps): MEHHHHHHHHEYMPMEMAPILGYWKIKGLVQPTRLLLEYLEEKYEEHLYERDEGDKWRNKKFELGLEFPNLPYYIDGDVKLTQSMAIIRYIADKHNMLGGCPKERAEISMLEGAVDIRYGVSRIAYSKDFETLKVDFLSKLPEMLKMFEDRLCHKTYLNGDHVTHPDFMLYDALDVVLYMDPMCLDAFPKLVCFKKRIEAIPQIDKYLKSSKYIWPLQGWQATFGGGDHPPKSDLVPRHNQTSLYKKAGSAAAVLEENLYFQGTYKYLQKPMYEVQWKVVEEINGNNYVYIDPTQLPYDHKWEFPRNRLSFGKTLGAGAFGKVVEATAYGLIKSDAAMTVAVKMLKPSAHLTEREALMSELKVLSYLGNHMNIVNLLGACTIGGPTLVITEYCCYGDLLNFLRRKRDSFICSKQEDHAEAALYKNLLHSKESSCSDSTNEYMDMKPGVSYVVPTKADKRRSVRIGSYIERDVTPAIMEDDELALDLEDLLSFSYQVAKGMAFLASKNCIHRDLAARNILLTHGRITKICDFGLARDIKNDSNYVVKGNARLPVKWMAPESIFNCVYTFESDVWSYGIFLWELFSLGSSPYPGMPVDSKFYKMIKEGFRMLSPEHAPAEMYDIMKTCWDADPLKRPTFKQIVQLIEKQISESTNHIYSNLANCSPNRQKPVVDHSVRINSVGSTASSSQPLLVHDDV

Structure (SMILES)	IC50 (GIST 430 cells)	IC50 (c-KIT kinase (uKIT))	IC50 (Ba/F3 KIT mutant cells; [1])	IC50 (Ba/F3 KIT mutant cells; [2])	IC50 (Ba/F3 KIT mutant cells; [3])	IC50 (Ba/F3 KIT mutant cells; [4])	IC50 (Ba/F3 KIT mutant cells; [5])
COCCOc1cc(F)c2c(Nc3ccc(NC(=O)CC(=O)NCC(C)(C)C)cc3)ncnc2c1 [Example 4, N1-(4-((5-fluoro-7-(2-methoxyethoxy)quinazolin-4-yl)amino)phenyl)-N3-neopentylmalonamide]	≤ 10 nM	10 to 100 nM	10 to 100 nM	10 to 100 nM	10 to 100 nM	10 to 100 nM	10 to 100 nM
COCCOc1cc(F)c2c(Nc3ccc(NC(=O)CC(=O)NCC(C)(C)OC)cc3)ncnc2c1 [Example 5, N^1-(4-((5-fluoro-7-(2-methoxyethoxy)quinazolin-4-yl)amino)phenyl)-N^3-(2-methoxy-2-methylpropyl)malonamide]	10 to 100 nM	10 to 100 nM	–	–	10 to 100 nM	10 to 100 nM	> 1000 nM
CC(C)Oc1cc(F)c2c(Nc3ccc(NC(=O)NCCC(C)(C)F)cc3)ncnc2c1 [Example 6, 1-(3-fluoro-3-methylbutyl)-3-(4-((5-fluoro-7-isopropoxyquinazolin-4-yl)amino)phenyl)urea]	10 to 100 nM	≤ 10 nM	–	–	100 to 1000 nM	≤ 10 nM	100 to 1000 nM
CO[C@@H](C)COc1cc(F)c2c(Nc3ccc(NC(=O)NCCC(C)(C)F)cc3)ncnc2c1 [Example 7, (S)-1-(3-fluoro-3-methylbutyl)-3-(4-((5-fluoro-7-(2-methoxypropoxy)quinazolin-4-yl)amino)phenyl)urea]	10 to 100 nM	≤ 10 nM	–	–	10 to 100 nM	10 to 100 nM	10 to 100 nM
COCCOc1cc(F)c2c(Nc3ccc(NC(=O)NC4CC(C)(C)C4)cc3)ncnc2c1 [Example 8]	10 to 100 nM	≤ 10 nM	≤ 10 nM	10 to 100 nM	10 to 100 nM	10 to 100 nM	100 to 1000 nM
COCCOc1cc(F)c2c(Nc3ccc(NC(=O)NCCC(C)(C)C)cc3)ncnc2c1 [Example 9]	≤ 10 nM	≤ 10 nM	≤ 10 nM	≤ 10 nM	≤ 10 nM	≤ 10 nM	10 to 100 nM
COCCOc1cc(F)c2c(Nc3ccc(NC(=O)NCCC(C)(C)OC)cc3)ncnc2c1 [Example 10]	≤ 10 nM	≤ 10 nM	≤ 10 nM	≤ 10 nM	10 to 100 nM	≤ 10 nM	10 to 100 nM
COCCOc1cc(F)c2c(Nc3ccc(NC(=O)NC4CCC(C(F)(F)F)CC4)cc3)ncnc2c1 (centres unmarked) [Example 15]	10 to 100 nM	≤ 10 nM	–	10 to 100 nM	10 to 100 nM	10 to 100 nM	100 to 1000 nM
COCCOc1cc(F)c2c(Nc3ccc(NC(=O)CCCC(C)(C)C)cc3)ncnc2c1 [Example 16]	≤ 10 nM	≤ 10 nM	–	≤ 10 nM	10 to 100 nM	≤ 10 nM	10 to 100 nM
COCCOc1cc(F)c2c(Nc3ccc(NC(=O)NCCC(C)C)cc3)ncnc2c1 [Example 18]	10 to 100 nM	≤ 10 nM	≤ 10 nM	≤ 10 nM	≤ 10 nM	≤ 10 nM	10 to 100 nM
COCCOc1cc(F)c2c(Nc3ccc(NC(=O)NCCC4CC4)cc3)ncnc2c1 [Example 19]	10 to 100 nM	≤ 10 nM	≤ 10 nM	≤ 10 nM	≤ 10 nM	10 to 100 nM	100 to 1000 nM
COCCOc1cc(F)c2c(Nc3ccc(NC(=O)NC4CC(C)(C)C4)nc3)ncnc2c1 [Example 25]	> 1000 nM	100 to 1000 nM	–	–	> 1000 nM	> 1000 nM	–
COCCOc1cc(F)c2c(Nc3ccc(NC(=O)NCCC(C)(C)C#N)cc3)ncnc2c1 [Example 26]	10 to 100 nM	≤ 10 nM	≤ 10 nM	≤ 10 nM	10 to 100 nM	10 to 100 nM	10 to 100 nM
COCCOc1cc(F)c2c(Nc3ccc(NC(=O)NCCC4COC4)cc3)ncnc2c1 [Example 27]	> 1000 nM	100 to 1000 nM	–	–	> 1000 nM	> 1000 nM	–
COCCOc1cc(F)c2c(Nc3ccc(NC(=O)CCC(C)(C)OC)cc3)ncnc2c1 [Example 28]	10 to 100 nM	10 to 100 nM	–	10 to 100 nM	10 to 100 nM	10 to 100 nM	100 to 1000 nM
COCCOc1cc(F)c2c(Nc3ccc(NC(=O)NCCC(C)(C)F)nc3)ncnc2c1 [Example 29]	100 to 1000 nM	100 to 1000 nM	–	> 1000 nM	> 1000 nM	> 1000 nM	> 1000 nM
COCCOc1cc(F)c2c(Nc3ccc(NC(=O)N[C@H]4CC[C@H](C(F)(F)F)CC4)cc3)ncnc2c1 [Example 30]	≤ 10 nM	≤ 10 nM	–	≤ 10 nM	10 to 100 nM	10 to 100 nM	10 to 100 nM
COCCOc1cc(F)c2c(Nc3ccc(NC(=O)CCCC(C)C)cc3)ncnc2c1 [Example 31]	10 to 100 nM	≤ 10 nM	10 to 100 nM	≤ 10 nM	10 to 100 nM	10 to 100 nM	100 to 1000 nM
COCCOc1cc(F)c2c(Nc3ccc(NC(=O)NCCC4(OC)CC4)cc3)ncnc2c1 [Example 32]	10 to 100 nM	≤ 10 nM	≤ 10 nM	≤ 10 nM	10 to 100 nM	10 to 100 nM	10 to 100 nM
